Columns and labels:
Test in all cases: Post-Emergent Test III (Wheat and Barley)
[1] = tested on: APESV (windgrass); type: in vivo, Apera spica-venti; conditions: for pest or weed control at 35 g/ha / pest or weed control at 70 g/ha / pest or weed control at 140 g/ha: Apera spica-venti, post-emergence, 504 h, postemergence, read-out: Visual Growth Reduction (%) 21 Days After Application, APESV; for pest or weed control at 35 g/ha: 35 g ai/ha; for pest or weed control at 70 g/ha: 70 g ai/ha; for GR50, APESV: effective dose for growth reduction of 50 percent; for GR50, APESV / GR80, APESV: probit analysis; for GR80, APESV: effective dose for growth reduction of 80 percent; for pest or weed control at 140 g/ha: 140 g ai/ha
Protocol: (§1) Seeds of the desired test plant species were planted in Sun Gro MetroMix® 306 planting mixture, which typically has a pH of 6.0 to 6.8 and an organic matter content of about 30 percent, in plastic pots with a surface area of 103.2 square centimeters (cm^2). When required to ensure good germination and healthy plants, a fungicide treatment and/or other chemical or physical treatment was applied. The plants were grown for 7-36 days in a greenhouse with an approximate 14 h photoperiod which was maintained at about 18° C. during the day and 17° C. during the night. Nutrients and water were added on a regular basis and supplemental lighting was provided with overhead metal halide 1000-Watt lamps as necessary. The plants were employed for testing when they reached the second or third true leaf stage.
(§2) A weighed amount, determined by the highest rate to be tested, of each test compound was placed in a 25 mL glass vial and was dissolved in 4 mL of a 97:3 v/v mixture of acetone and DMSO to obtain concentrated stock solutions. […] The concentrated stock solutions obtained were diluted with 20 mL of an aqueous mixture containing acetone, water, isopropyl alcohol, DMSO, Agri-Dex crop oil concentrate, and X-77 surfactant in a 48:39:10:1.5:1.5:0.02 v/v ratio to obtain spray solutions containing the highest application rates. Additional application rates were obtained by serial dilution of 12 mL of the high rate solution into a solution containing 2 mL of 97:3 v/v mixture of acetone and DMSO and 10 mL of an aqueous mixture containing acetone, water, isopropyl alcohol, DMSO, Agri-Dex crop oil concentrate, and X-77 surfactant in a 48:39:10:1.5:1.5:0.02 v/v ratio to obtain ½×, ¼×, ⅛× and 1/16× rates of the high rate. Compound requirements are based upon a 12 mL application volume at a rate of 187 liters per hectare (L/ha). Formulated compounds were applied to the plant material with an overhead Mandel track sprayer equipped with 8002E nozzles calibrated to deliver 187 L/ha over an application area of 0.503 square meters at a spray height of 18 inches (43 cm) above the average plant canopy height. Control plants were sprayed in the same manner with the solvent blank.
(§3) The treated plants and control plants were placed in a greenhouse as described above and watered by subirrigation to prevent wash-off of the test compounds. After 21 dAYS, the condition of the test plants as compared with that of the untreated plants was determined visually and scored on a scale of 0 to 100 percent where 0 corresponds to no injury and 100 corresponds to complete kill and presented as indicated in Table A.
(§4) By applying the well-accepted probit analysis as described by J. Berkson in Journal of the American Statistical Society, 48, 565 (1953) and by D. Finney in “Probit Analysis” Cambridge University Press (1952), herbicidal injury of a specific compound at various rates can be used to calculate GR10, GR20, GR50, GR80 and GR90 values, which are defined as growth reduction factors that correspond to the effective dose of herbicide required to provide plant growth reduction (GR) of 10 percent, 20 percent, 50 percent, 80 percent and 90 percent, respectively. Probit analysis was applied to data collected from multiple dose rates of individual compounds utilizing the procedures explained in the following examples. The analysis of those dose rates is captured in the following tables.

[2] = tested on: ALOMY (blackgrass); type: in vivo, Alopecurus myosuroides; conditions: for pest or weed control at 35 g/ha / pest or weed control at 70 g/ha / pest or weed control at 140 g/ha: Alopecurus myosuroides, post-emergence, 504 h, postemergence, read-out: Visual Growth Reduction (%) 21 Days After Application, ALOMY; for pest or weed control at 35 g/ha: 35 g ai/ha; for pest or weed control at 70 g/ha: 70 g ai/ha; for GR50, ALOMY: effective dose for growth reduction of 50 percent; for GR50, ALOMY / GR80, ALOMY: probit analysis; for GR80, ALOMY: effective dose for growth reduction of 80 percent; for pest or weed control at 140 g/ha: 140 g ai/ha
Protocol: as §1, §2, §3, §4

[3] = tested on: KCHSC (kochia); type: in vivo, Kochia scoparia; conditions: for pest or weed control at 35 g/ha / pest or weed control at 70 g/ha / pest or weed control at 140 g/ha: Bassia scoparia, post-emergence, 504 h, postemergence, read-out: Visual Growth Reduction (%) 21 Days After Application, KCHSC; for pest or weed control at 35 g/ha: 35 g ai/ha; for pest or weed control at 70 g/ha: 70 g ai/ha; for GR50, KCHSC: effective dose for growth reduction of 50 percent; for GR50, KCHSC / GR80, KCHSC: probit analysis; for GR80, KCHSC: effective dose for growth reduction of 80 percent; for pest or weed control at 140 g/ha: 140 g ai/ha
Protocol: as §1, §2, §3, §4

[4] = tested on: HORSS; type: in vivo; conditions: for pest or weed control at 35 g/ha / pest or weed control at 70 g/ha / pest or weed control at 140 g/ha: Hordeum vulgare, post-emergence, 504 h, postemergence, read-out: Visual Growth Reduction (%) 21 Days After Application, HORSS; for pest or weed control at 35 g/ha: 35 g ai/ha; for pest or weed control at 70 g/ha: 70 g ai/ha; for GR20, HORSS: effective dose for growth reduction of 20 percent, probit analysis; for pest or weed control at 140 g/ha: 140 g ai/ha
Protocol: as §1, §2, §3, §4

[5] = tested on: TRZSS; type: in vivo; conditions: for pest or weed control at 35 g/ha / pest or weed control at 70 g/ha / pest or weed control at 140 g/ha: Triticum aestivum, post-emergence, 504 h, postemergence, read-out: Visual Growth Reduction (%) 21 Days After Application, TRZSS; for pest or weed control at 35 g/ha: 35 g ai/ha; for pest or weed control at 70 g/ha: 70 g ai/ha; for GR20, TRZSS: effective dose for growth reduction of 20 percent, probit analysis; for pest or weed control at 140 g/ha: 140 g ai/ha
Protocol: as §1, §2, §3, §4

[6] = tested on: SETVI (green foxtail); type: in vivo, Setaria viridis; conditions: for pest or weed control at 35 g/ha / pest or weed control at 70 g/ha / pest or weed control at 140 g/ha: Setaria viridis, post-emergence, 504 h, postemergence, read-out: Visual Growth Reduction (%) 21 Days After Application, SETVI; for pest or weed control at 35 g/ha: 35 g ai/ha; for pest or weed control at 70 g/ha: 70 g ai/ha; for GR50, SETVI: effective dose for growth reduction of 50 percent; for GR50, SETVI / GR80, SETVI: probit analysis; for GR80, SETVI: effective dose for growth reduction of 80 percent; for pest or weed control at 140 g/ha: 140 g ai/ha
Protocol: as §1, §2, §3, §4

Structure (SMILES)	pest or weed control at 35 g/ha [1] [%]	pest or weed control at 70 g/ha [1] [%]	GR50, APESV [1] [g ai/ha]	GR80, APESV [1] [g ai/ha]	pest or weed control at 35 g/ha [2] [%]	pest or weed control at 70 g/ha [2] [%]	GR50, ALOMY [2] [g ai/ha]	GR80, ALOMY [2] [g ai/ha]	pest or weed control at 35 g/ha [3] [%]	pest or weed control at 70 g/ha [3] [%]	pest or weed control at 35 g/ha [4] [%]	pest or weed control at 70 g/ha [4] [%]	GR20, HORSS [4] [g ai/ha]	pest or weed control at 35 g/ha [5] [%]	pest or weed control at 70 g/ha [5] [%]	GR20, TRZSS [5] [g ai/ha]	pest or weed control at 35 g/ha [6] [%]	pest or weed control at 70 g/ha [6] [%]	GR50, SETVI [6] [g ai/ha]	GR80, SETVI [6] [g ai/ha]	also measured
Nc1c(F)c(-c2ccc(C3CC3)nc2)nc(C(=O)O)c1Cl [Compound 36, 4-amino-5-chloro-6′-cyclopropyl-3-fluoro-[2,3′-bipyridine]-6-carboxylic acid]	45 to 59	85 to 94	24	53	0 to 29	30 to 44	126	>140	45 to 59	60 to 74	60 to 74	75 to 84	1	60 to 74	75 to 84	1	30 to 44	45 to 59	59	>140	GR50, KCHSC [3]: 34 g ai/ha; GR80, KCHSC [3]: 108 g ai/ha
COC(=O)c1nc(-c2ccc(OC(F)F)nc2)c(F)c(N)c1Cl [Compound 71]	0 to 29	0 to 29	>140	>140	0 to 29	0 to 29	>140	>140	0 to 29	60 to 74	30 to 44	60 to 74	26	60 to 74	75 to 84	16	30 to 44	45 to 59	72	>140	pest or weed control at 140 g/ha [1]: 30 to 44%; pest or weed control at 140 g/ha [2]: 30 to 44%; pest or weed control at 140 g/ha [3]: 60 to 74%; GR50, KCHSC [3]: 80 g ai/ha; GR80, KCHSC [3]: >140 g ai/ha; pest or weed control at 140 g/ha [4]: 75 to 84%; pest or weed control at 140 g/ha [5]: 85 to 94%; pest or weed control at 140 g/ha [6]: 75 to 84%
COC(=O)c1nc(-c2ccc(Cl)c(F)c2OC)cc(N)c1Cl [Compound 20]	0 to 29	60 to 74	117	>140	45 to 59	75 to 84	86	>140	85 to 94	95 to 100	45 to 59	75 to 84	7	85 to 94	85 to 94	2	0 to 29	60 to 74	80	>140	pest or weed control at 140 g/ha [1]: 75 to 84%; pest or weed control at 140 g/ha [2]: 85 to 94%; pest or weed control at 140 g/ha [3]: 95 to 100%; GR50, KCHSC [3]: 2 g ai/ha; GR80, KCHSC [3]: 10 g ai/ha; pest or weed control at 140 g/ha [4]: 85 to 94%; pest or weed control at 140 g/ha [5]: 85 to 94%; pest or weed control at 140 g/ha [6]: 60 to 74%
Cc1c(-c2ccc(C(F)(F)F)nc2)nc(C(=O)O)c(Cl)c1N [Compound 51, 4-amino-5-chloro-3-methyl-6′-(trifluoromethyl)-[2,3′-bipyridine]-6-carboxylic acid]	0 to 29	60 to 74	63	139	0 to 29	0 to 29	>140	>140	0 to 29	0 to 29	60 to 74	75 to 84	1	60 to 74	75 to 84	1	75 to 84	85 to 94	26	47	–
COC(=O)c1nc(-c2ccc(C(F)(F)F)nc2)c(F)c(N)c1Cl [Compound 59, methyl 4-amino-5-chloro-3-fluoro-6′-(trifluoromethyl)-[2,3′-bipyridine]-6-carboxylate]	30 to 44	75 to 84	42	72	30 to 44	60 to 74	48	80	60 to 74	75 to 84	75 to 84	75 to 84	4	60 to 74	75 to 84	4	45 to 59	85 to 94	34	61	GR50, KCHSC [3]: 27 g ai/ha; GR80, KCHSC [3]: 57 g ai/ha

— patent US10765114B2, “4-amino-6-(pyridyl and 2-substitutedphenyl)-picolinates and 6-amino-2-(pyridyl and 2-substitutedphenyl)-pyrimidine-4-carboxylates and their use as herbicides” (Dow AgroSciences LLC, priority 2013, dated 2020)
